Source: PMC5895699, “Catalytically active inclusion bodies of L-lysine decarboxylase from E. coli for 1,5-diaminopentane production” (Scientific Reports, 2018)

Biological target: T1, EcLDCc-CatIBs (EcLDCc-TDoT fusion; constitutive L-lysine decarboxylase from E. coli) (Escherichia coli, UniProt P52095)
T1 construct: gene ldcC; full-length EcLDCc with C-terminal 3xGGGS linker and TDoT coiled-coil tag (tetrabrachion, Staphylothermus marinus), pET28, E. coli BL21(DE3)
T1 sequence (P52095 1-713): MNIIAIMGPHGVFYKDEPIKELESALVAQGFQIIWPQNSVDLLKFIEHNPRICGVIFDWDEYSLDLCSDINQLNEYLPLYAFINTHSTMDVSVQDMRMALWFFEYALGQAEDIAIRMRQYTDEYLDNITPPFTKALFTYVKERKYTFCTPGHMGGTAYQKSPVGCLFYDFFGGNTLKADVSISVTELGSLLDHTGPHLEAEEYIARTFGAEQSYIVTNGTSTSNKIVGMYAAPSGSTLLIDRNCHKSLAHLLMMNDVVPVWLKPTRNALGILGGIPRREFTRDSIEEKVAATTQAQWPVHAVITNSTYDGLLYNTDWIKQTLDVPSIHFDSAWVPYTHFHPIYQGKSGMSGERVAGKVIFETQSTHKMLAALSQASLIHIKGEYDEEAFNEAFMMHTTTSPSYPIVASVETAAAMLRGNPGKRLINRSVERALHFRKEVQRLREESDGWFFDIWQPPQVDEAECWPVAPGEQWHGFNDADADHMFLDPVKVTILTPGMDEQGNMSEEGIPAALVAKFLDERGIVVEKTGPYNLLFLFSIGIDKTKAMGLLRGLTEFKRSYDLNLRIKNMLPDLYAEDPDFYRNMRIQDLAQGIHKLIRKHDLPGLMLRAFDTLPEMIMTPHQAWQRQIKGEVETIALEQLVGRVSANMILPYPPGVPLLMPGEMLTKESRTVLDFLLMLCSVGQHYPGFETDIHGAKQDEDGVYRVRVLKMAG
Experiment: HPLC of […],5-diaminopentane formed, OPA derivatisation
Format: biochemical
Conditions: 50 mM KPi buffer, 10 mM L-lysine, 30 °C, pH 7-9 (general range; pH 9 differs); CatIB enzyme as prepared, not PLP-depleted

Which “% activity increase at 0.1 mM PLP” value does the source give for `Cc1ncc(COP(=O)(O)O)c(C=O)c1O` [pyridoxal-5′-phosphate] here?
The value was 5–15%.
